From article PMC5834214 (PLoS Pathogens, 2018) come the findings set out here.

Read-outs that look alike come from different tables or passages of the source.

Data set [1] concerns rLCMV/eGFP. Format: cell-based, lymphocytic choriomeningitis virus.
The next data set concerns rLCMVΔGPC/eGFP. It counts as cell-based, lymphocytic choriomeningitis virus.
Data set [2] can be described thus: in vitro. Particulars: human.
Data set [3] has as its system rLCMV/eGFP. It counts as cell-based, lymphocytic choriomeningitis virus. The source holds these as a separate data set.
Data set [4] has as its system rLCMV/eGFP. Description: microbe, parasite or virus in culture. Particulars: Mammarenavirus choriomeningitidis, Vero C1008, 48 h, read-out: IC50 (anti-LCMV, eGFP expression).
The subject of another data set is rLASV/eGFP. Nature of the data set: microbe, parasite or virus in culture. Format: cell-based, Lassa virus. Particulars: Mammarenavirus lassaense, A549, 48 h, read-out: IC50 (LASV, eGFP expression).
The subject of the next data set is rVSV/eGFP. Format: cell-based, vesicular stomatitis Indiana virus.
A short description of data set [5]: in vitro. As to conditions: grivet.
The test system of another data set is scrLCMV/ZsG-P2A-NP. Format: cell-based, lymphocytic choriomeningitis virus.
The subject of data set [6] is rLCMV/eGFP. Format: cell-based, lymphocytic choriomeningitis virus. This is another data set of the same source.
The next data set relates to r3JUNV/eGFP. It counts as cell-based, Junín virus.
In data set [7] the test system is rLCMV/eGFP. Description: microbe, parasite or virus in culture. As to conditions: Mammarenavirus choriomeningitidis, A549, 48 h.
The subject of data set [8] is rLCMV/eGFP. Format: cell-based, lymphocytic choriomeningitis virus. This is another data set of the same source.
A further data set deals with eGFP (Aequorea victoria, UniProt P42212, F64L/H231L/S65T).
The next data set concerns the target LCMV NP (Strep-NP) (Lymphocytic choriomeningitis virus, UniProt P09992).
For a further data set, the system named is LCMV Z-mediated budding. It counts as cell-based, lymphocytic choriomeningitis virus.
Another data set relates to LASV Z-mediated budding. Format: cell-based, Lassa virus.
[9] abbreviates: read-out: IC50 (anti-LCMV, eGFP expression).

LCMV NP (Strep-NP), sequence (P09992 whole entry): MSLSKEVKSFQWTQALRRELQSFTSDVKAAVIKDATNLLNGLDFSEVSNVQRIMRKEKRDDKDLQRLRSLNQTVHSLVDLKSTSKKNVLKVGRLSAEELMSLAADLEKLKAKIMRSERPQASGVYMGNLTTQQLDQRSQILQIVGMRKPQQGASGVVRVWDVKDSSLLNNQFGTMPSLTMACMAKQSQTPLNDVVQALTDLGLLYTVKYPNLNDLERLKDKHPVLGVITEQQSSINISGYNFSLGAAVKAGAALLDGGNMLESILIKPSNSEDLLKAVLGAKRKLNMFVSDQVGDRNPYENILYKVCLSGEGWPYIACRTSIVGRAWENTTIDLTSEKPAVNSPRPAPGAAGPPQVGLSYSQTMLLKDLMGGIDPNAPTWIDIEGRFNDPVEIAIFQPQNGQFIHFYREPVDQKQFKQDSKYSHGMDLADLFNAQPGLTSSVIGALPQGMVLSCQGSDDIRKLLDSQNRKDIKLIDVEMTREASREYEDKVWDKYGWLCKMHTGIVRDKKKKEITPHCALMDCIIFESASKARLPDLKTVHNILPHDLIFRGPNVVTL

For the compound `C[C@@H]1O[C@@H](O[C@H]2C[C@@H](O)[C@]3(CO)[C@H]4[C@H](O)C[C@]5(C)[C@@H](C6=CC(=O)OC6)CC[C@]5(O)[C@@H]4CC[C@]3(O)C2)[C@H](O)[C@H](O)[C@H]1O` [ouabain], in the data set on rLCMV/eGFP [1], the “assembly de novo of extracellular infectious virus (virus titers in TCS)” value is given as “did not inhibit assembly de novo of extracellular infectious virus”. In addition, in the data set on rLCMVΔGPC/eGFP, the “reporter eGFP expression (virus RNA synthesis)” value was “did not affect reporter eGFP expression”. Besides, the figures for the CC50 in the data set “in vitro [2]” and in “in vitro [5]” were 28.9 nM and 70 nM, respectively. Further, the “production of infectious LCMV progeny” value in the data set with rLCMV/eGFP [3] is reported as “reduced”. Besides, the IC50 in the data set on rLCMV/eGFP [4] was 18.4 nM; in the data set with rLASV/eGFP, 9.34 nM; in the data set with rLCMV/eGFP [7] (setting [9]), 5.79 nM; with rLCMV/eGFP [7] (read-out: IC50 as log10 (converted)), 5.79 nM. The “Multiplication of VSV” value in the data set on rVSV/eGFP is on record as “not significantly affected”. For the same compound, in the data set on scrLCMV/ZsG-P2A-NP, the “assembly de novo of extracellular infectious virus (GP-incorporation efficiency)” value was “did not inhibit assembly de novo of extracellular infectious virus”. For the same compound, the “cell entry of LCMV” value in the data set on rLCMV/eGFP [6] is “neither ouabain nor rocaglamide inhibited cell entry of LCMV”. Further, the “number of eGFP+ cells” value in the data set with rLCMV/eGFP [6] is “reduced at all time-of-addition points compared to vehicle”. The JUNV multiplication entry in the data set with r3JUNV/eGFP was “strongly suppressed JUNV multiplication”. In the data set on rLCMV/eGFP [8], the “eGFP expression in infected cells” value is “strong dose-dependent inhibition of eGFP expression”. Also, the “eGFP expression intensity in infected cells” value with rLCMV/eGFP [8] is “did not affect eGFP expression intensity”.

Consider SPTAN1, for which, in the data set with eGFP, the “Spectral count eGFP Average” value is 0, the “Spectral count eGFP Exp. 1” value is reported as 0 and the “Spectral count eGFP Exp. 2” value worked out at 0. In addition, in the data set with LCMV NP (Strep-NP), the “Spectral count NP Average” value was 4, the “Spectral count NP Exp. 1” value amounted to 4 and the “Spectral count NP Exp. 2” value was 4.

Regarding `COc1ccc([C@@]23Oc4cc(OC)cc(OC)c4[C@]2(O)[C@H](O)[C@H](C(=O)N(C)C)[C@H]3c2ccccc2)cc1` [rocaglamide], in the data set on rLCMVΔGPC/eGFP, the “reporter eGFP expression (virus RNA synthesis)” value is “reduced eGFP expression”. In addition, the CC50 in the data set “in vitro [2]” is over 1000 nM; in “in vitro [5]”, 100 nM. Besides, the “production of infectious LCMV progeny” value in the data set on rLCMV/eGFP [3] was “reduced”. In addition, in the data set with LCMV Z-mediated budding, the “LCMV Z budding efficiency” value is on record as “caused a reduction”. Besides, the IC50 was determined as 9.75 nM in the data set with rLCMV/eGFP [4], 37 nM in the data set on rLASV/eGFP and 9.51 nM with rLCMV/eGFP [7] (setting [9]). The “LASV Z budding efficiency” value in the data set with LASV Z-mediated budding is reported as “caused a reduction”. Moreover, the “Multiplication of VSV” value with rVSV/eGFP is “not significantly affected”. The “cell entry of LCMV” value with rLCMV/eGFP [6] is listed as “neither ouabain nor rocaglamide inhibited cell entry of LCMV”. For the same compound, the “number of eGFP+ cells” value in the data set with rLCMV/eGFP [6] is on record as “negligible number of eGFP^+ cells”. Further, the JUNV multiplication result with r3JUNV/eGFP is “strongly suppressed JUNV multiplication”. Further, in the data set with rLCMV/eGFP [8], the “eGFP expression in infected cells” value is reported as “dose-dependent rocaglamide inhibition of eGFP expression”.

As to `C[C@]12CC[C@H](O)C[C@H]1CC[C@@H]1[C@@H]2CC[C@]2(C)[C@@H](c3ccc(=O)oc3)CC[C@]12O` [bufalin], the CC50 in “in vitro [2]” is 16.4 nM; in “in vitro [5]”, 73.8 nM. The figures for the IC50 with rLCMV/eGFP [4], with rLASV/eGFP and in the data set on rLCMV/eGFP [7] (setting [9]) were 12.5 nM, 1.66 nM and 1.85 nM, respectively. Also, the JUNV multiplication entry in the data set with r3JUNV/eGFP is given as “strongly suppressed JUNV multiplication”.

The IC50 is the point on the concentration scale where inhibition reaches its midpoint.
